From ChEMBL document CHEMBL5512613, “Design and synthesis of novel 3-amino-5-phenylpyrazole derivatives as tubulin polymerization inhibitors targeting the colchicine-binding site” (Eur J Med Chem, 2024)
Calls of active or inactive are those of the source. No cut-off for these calls is given here.

What was measured:
MDA-MB-231 = assay: Antiproliferative activity against human MDA-MB-231 cells assessed as inhibition of cell growth incubated for 48 hrs by MTT assay; assay type: functional, cell-based; settings: MDA-MB-231, 48 h
HeLa = assay: Antiproliferative activity against human HeLa cells assessed as inhibition of cell growth incubated for 48 hrs by MTT assay; assay type: functional, cell-based
A549 = assay: Antiproliferative activity against human A549 cells assessed as inhibition of cell growth incubated for 48 hrs by MTT assay; assay type: functional, cell-based; settings: A549, 48 h
[1] = Cytotoxicity against human L02 cells assessed as inhibition of cell growth incubated for 48 hrs by MTT assay; assay type: toxicity, cell-based
HT-29 = assay: Antiproliferative activity against human HT-29 cells assessed as inhibition of cell growth incubated for 48 hrs by MTT assay; assay type: functional, cell-based; settings: HT-29, 48 h
MCF7 [2] = assay: Antiproliferative activity against human MCF7 cells assessed as inhibition of cell growth incubated for 48 hrs by MTT assay; assay type: functional, cell-based; settings: MCF7, 48 h
MCF7 [3] = assay: Inhibition of colony formation in human MCF7 cells at 10 nM incubated for 2 weeks in 5% CO2 at 37 degC by crystal violet staining based analysis; assay type: functional, cell-based
MCF7 [4] = assay: Antitumor activity against human MCF7 cells xenografted in BALB/c mouse assessed as inhibition of tumor growth by measuring decrease in tumor weight at 10 mg/kg, ip administered every 3 days for 21 days; assay type: functional; settings: MCF7, 504 h, time 21 day, read-out: TGI
Tubulin (Homo sapiens) = Tubulin (Homo sapiens) (UniProt P68371+Q9H4B7+P0DPH7+P68366+Q13509+Q71U36+P04350+Q3ZCM7+P07437+P68363+Q9BQE3+Q6PEY2+Q13885+Q9BVA1+Q9BUF5); assay: Stabilization of tubulin in human MCF7 cells assessed as stable and fascicled microtubules at 25 nM incubated for 8 hrs by DAPI staining based immunofluorescence assay; assay type: cell-based

Row | Structure (SMILES) | IC50 (MDA-MB-231) | IC50 (HeLa) | IC50 (A549) | IC50 at 48 h [1] | IC50 (HT-29) | IC50 (MCF7 [2]) | inhibition (MCF7 [3]) | inhibition in vivo at 10 mg/kg (MCF7 [4]) | Activity (Tubulin (Homo sapiens))
1 | COc1cc(C(=O)n2nc(N)cc2-c2ccc(Br)cc2)cc(OC)c1OC | 3.02 µM | 0.62 µM | 2.43 µM | 2.68 µM | 4.61 µM | 2.08 µM | – | – | –
2 | COc1ccc(C(=O)n2nc(N)cc2-c2ccc(OC)c(OC)c2)cc1OC | > 5 µM | > 5 µM | > 5 µM | > 10 µM | > 5 µM | > 5 µM | – | – | –
3 | COc1ccc(-c2cc(N)nn2C(=O)c2cc(OC)c(OC)c(OC)c2)cc1 | 0.84 µM | 0.65 µM | 0.35 µM | > 10 µM | 0.4 µM | 0.31 µM | – | – | –
4 | Cc1ccc(-c2cc(N)nn2C(=O)c2ccc3c(c2)OCO3)cc1 | 0.17 µM | 0.04 µM | 2.15 µM | 3.9 µM | 1.92 µM | 0.12 µM | – | – | –
5 | COc1cc(C(=O)n2nc(N)cc2-c2cccc(Br)c2)cc(OC)c1OC | 0.54 µM | 0.44 µM | 2.18 µM | > 10 µM | 0.28 µM | 0.19 µM | – | – | –
6 | COc1ccc(-c2cc(N)nn2C(=O)c2ccc3c(c2)OCO3)cc1OC | 2.16 µM | 4.93 µM | 2.77 µM | 2.09 µM | 3.57 µM | 1.19 µM | – | – | –
7 | Nc1cc(-c2ccc(F)cc2)n(C(=O)c2ccc3c(c2)OCO3)n1 | 1.97 µM | > 5 µM | 3.84 µM | 6.06 µM | > 5 µM | 4.44 µM | – | – | –
8 | COc1ccc(C(=O)n2nc(N)cc2-c2cccc(Cl)c2)cc1OC | > 5 µM | > 5 µM | > 5 µM | > 10 µM | > 5 µM | > 5 µM | – | – | –
9 | COc1ccc(/C=C\c2cc(OC)c(OC)c(OC)c2)cc1O [COMBRETASTATIN A4] | 0.11 µM | 0.09 µM | 0.28 µM | 3.2 µM | 0.38 µM | – | Active | – | –
10 | COc1ccc(C(=O)n2nc(N)cc2-c2ccc(Br)cc2)cc1OC | 1.29 µM | 1.54 µM | 2.68 µM | 1.12 µM | 1.08 µM | 0.18 µM | – | – | –
11 | COc1cc(C(=O)n2nc(N)cc2-c2cccc(C)c2)cc(OC)c1OC | 1.27 µM | 0.2 µM | 0.77 µM | 2.81 µM | 1.06 µM | 0.08 µM | – | – | –
12 | COc1cccc(-c2cc(N)nn2C(=O)c2ccc3c(c2)OCO3)c1 | > 5 µM | > 5 µM | > 5 µM | > 10 µM | > 5 µM | > 5 µM | – | – | –
13 | COc1cc(C(=O)n2nc(N)cc2-c2cccc(Cl)c2)cc(OC)c1OC | – | 0.14 µM | 5.18 µM | 1.64 µM | 0.85 µM | 0.11 µM | – | – | –
14 | COc1cccc(-c2cc(N)nn2C(=O)c2cc(OC)c(OC)c(OC)c2)c1 | 1.29 µM | 2.04 µM | 0.89 µM | 5.68 µM | 0.16 µM | 0.4 µM | – | – | –
15 | COc1ccc(C(=O)n2nc(N)cc2-c2ccc(F)cc2)cc1OC | > 5 µM | > 5 µM | > 5 µM | > 10 µM | > 5 µM | > 5 µM | – | – | –
16 | COc1ccc(C(=O)n2nc(N)cc2-c2ccc(Cl)cc2)cc1OC | > 5 µM | 2.86 µM | 1.78 µM | 4.66 µM | 3.91 µM | 1.54 µM | – | – | –
17 | COc1cccc(-c2cc(N)nn2C(=O)c2ccc(OC)c(OC)c2)c1 | 3.09 µM | > 5 µM | 2.97 µM | 2.61 µM | > 5 µM | 1.2 µM | – | – | –
18 | CC(=O)O[C@H]1C(=O)[C@@]2(C)[C@H]([C@H](OC(=O)c3ccccc3)[C@]3(O)C[C@H](OC(=O)[C@H](O)[C@@H](NC(=O)c4ccccc4)c4ccccc4)C(C)=C1C3(C)C)[C@]1(OC(C)=O)CO[C@@H]1C[C@@H]2O [PACLITAXEL] | 0.19 µM | 0.02 µM | – | 1.73 µM | 0.07 µM | 0.22 µM | Active | 73.5% | Active
19 | COc1ccc(C(=O)n2nc(N)cc2-c2ccc(C)cc2)cc1OC | 3.08 µM | 4.85 µM | 2.53 µM | 5.58 µM | 1.85 µM | 1.36 µM | – | – | –
20 | COc1cc(C(=O)n2nc(N)cc2-c2ccc(Cl)cc2)cc(OC)c1OC | 2.98 µM | 2.55 µM | 1.36 µM | 2.73 µM | 4.35 µM | 2.77 µM | – | – | –
21 | COc1cc(C(=O)n2nc(N)cc2-c2cccc(F)c2)cc(OC)c1OC | 0.33 µM | 0.32 µM | 2.89 µM | 4.17 µM | 0.19 µM | 0.12 µM | – | – | –
22 | COc1ccc(-c2cc(N)nn2C(=O)c2cc(OC)c(OC)c(OC)c2)cc1OC | 1.57 µM | 0.56 µM | 0.78 µM | 4.1 µM | 1.77 µM | 0.17 µM | – | – | –
23 | Nc1cc(-c2ccc(Cl)cc2)n(C(=O)c2ccc3c(c2)OCO3)n1 | 3.87 µM | 2.79 µM | 1.68 µM | > 10 µM | > 5 µM | 0.75 µM | – | – | –
24 | COc1cc(C(=O)n2nc(N)cc2-c2ccc(F)cc2)cc(OC)c1OC | 0.39 µM | 0.13 µM | 2.53 µM | 6.24 µM | 0.06 µM | 0.15 µM | – | – | –
